Results reported in patent US8329710B2, “Metformin folate and preparation of the same” (Sino-Us Pficker Pharmaceuticals Co., priority 2006, dated 2012).
Where a name gives a salt, the structure may show the parent alone.

Tests used:
[1] = test system: diabetic mice induced by streptozotocin; experiment: Animal test: blood glucose level in streptozotocin-induced diabetic mice, 10 days; format: in vivo; conditions: for capacity of lowering blood glucose, folacin-metformin compared with metformin hydrochloride (in words): diabetic mice, 10 days, 350 mg/kg vs 100 mg/kg body weight; for blood glucose level, After use: streptozotocin diabetic mice, day 10, folacin-metformin 350 mg/kg body weight, metformin hydrochloride 100 mg/kg body weight, mean of 6 mice
Protocol: (§1) The female mice were induced to diabetic mice by streptozotocin (body weight […]), 6 animals in one group. The data in the table below represented the average of the values of six mice. Normal healthy mice were used as control group 1, control group 2, and control group 3. Control group 1 was administered folacin-metformin (350 mg/kg body weight), control group 2 was administered metformin hydrochloride (100 mg/kg body weight), and control group 3 was administered normal saline. Diabetic mice were divided into three groups, each group was fed folacin-metformin (350 mg/kg body weight), metformin hydrochloride (100 mg/kg body weight) and normal saline, separately. The test lasted for 10 days, and the blood glucose levels and the homocysteine concentrations were detected for all the mice by the end of the test.
(§2) On day 10 of the test, test mice were anaesthetized by i.p. injection of 65 mg/kg body weight of sodium pentobarbital, then collected blood sample from the abdominal aorta. Blood glucose levels were determined by a standard protocol (Methods of Enzymatic Analysis, Vol. 3, 2nd ed. Verlag Chemie International, 1981, p1196-1201), and the homocysteine concentrations in the blood samples were determined using high performance liquid chromatograph according to the literature (Eur. J. Clin. Chem. Clin. Biochem. 1991, 29, 549-554).

normal healthy mice [2] = experiment: Animal test: blood glucose level in normal healthy mice (control groups), 10 days; format: in vivo; conditions: for blood glucose level, After use: normal healthy mice, day 10, folacin-metformin 350 mg/kg body weight, metformin hydrochloride 100 mg/kg body weight, mean of 6 mice
Protocol: as §1, §2

normal healthy mice [3] = experiment: Animal test: homocysteine concentration in blood of normal healthy mice (control groups), 10 days; format: in vivo; conditions: metformin hydrochloride 100 mg/kg body weight
Protocol: as §1, §2

[4] = test system: diabetic mice induced by streptozotocin; experiment: Animal test: homocysteine concentration in blood of streptozotocin-induced diabetic mice, 10 days; format: in vivo; conditions: metformin hydrochloride 100 mg/kg body weight
Protocol: as §1, §2

[5] = after long-term use, recent clinical application; cited from earlier work

Compound | capacity of lowering blood glucose, folacin-metformin compared with metformin hydrochloride (in words) [1] | blood glucose level, After use [1] [mmol/L] | effect on the blood glucose level (in words) (normal healthy mice [2]; healthy mice, 10 days, 350 mg/kg body weight) | blood glucose level, After use (normal healthy mice [2]) [mmol/L] | effect on the blood homocysteine concentration (in words) (normal healthy mice [3]; healthy mice, 10 days, folacin-metformin 350 mg/kg) | homocystein concentration, After use (normal healthy mice [3]; normal healthy mice, day 10, folacin-metformin 350 mg/kg body weight, mean of 6 mice) [µmol/L] | increase of the homocysteine concentration while lowering the blood glucose (in words) ([4]; diabetic mice, 10 days, folacin-metformin 350 mg/kg) | homocystein concentration, After use ([4]; streptozotocin diabetic mice, day 10, folacin-metformin 350 mg/kg body weight, mean of 6 mice) [µmol/L] | homocystein concentration in the patient (in words) [5]
CN(C)C(=N)N=C(N)N.Nc1nc2ncc(CNc3ccc(C(=O)N[C@@H](CCC(=O)O)C(=O)O)cc3)nc2c(=O)[nH]1 [folacin-metformin] | no difference | 7.4 ± 1.7 | no effect | 7.2 ± 1.2 | slight lowering effect | 9.3 ± 1.1 | does not increase | 8.9 ± 0.9 | 
CN(C)C(=N)N=C(N)N [metformin hydrochloride, reference compound] | no difference | 7.6 ± 1.4 |  | 7.4 ± 1.7 |  |  |  |  | substantially increased
